Data set [1] concerns H9c2 cardiac myoblasts. Put plainly: H9c2 cell protection from H2O2-mediated oxidative stress, CCK-8. Type of data set: cell-based, rat. As to conditions: then H2O2 200 μM.
Protocol: The cytoprotective effects of 1a was then measured against oxidative stress.
H9c2 embryonic rat heart myoblasts were obtained from the American Type Culture Collection. Cells were grown in Dulbecco's minimal essential medium (DMEM), supplemented with fetal bovine serum (FBS) 10%, penicillin 100 U/mL and streptomycin 100 μg/mL. They were propagated in T75-flasks, split before reaching 70-80% confluence (usually every day or every second day), and used within 11 passages. Cells were passaged to tissue culture treated 96-well microtiter plates at the specified density in 180 μL volumes and incubated for 24 h.
Cells were seeded at a density of 5×10^3 cells/well. After 24 h, precursor 1a or by-product 4a was added at 20 μL volumes using DMSO:H2O (<0.01% DMSO as the vehicle). Cells were incubated for 2 h before media was removed and the cells gently washed with PBS (pH 7.4). Then, 180 μL of fresh media and 20 μL H2O2 diluted into H2O were added and cells were incubated for an additional 2 h. At the completion of H2O2 exposure, each well is carefully washed 3 times with PBS (pH 7.4) before adding 100 μL of media, without-FBS, containing 10% v/v CCK-8 (Dojindo) and incubated for 3 h prior to obtaining absorbance values at 450 nm. The relative % viability was calculated as 100 times the ratio of the Abs450 (pre-treated, H2O2-exposed) over Abs450 (vehicle-treated, non H2O2-exposed).
For data set [2], the system named is FA fibroblasts. The data set is described as follows: Lipid peroxidation, C11-BODIPY (581/591) flow cytometry. As to conditions: 50 μM pre-treatment for 4 h, erastin 10 μM. Type of data set: cell-based, human. The source says: Blue represents DMSO-treated cells, red represents erastin treated cells, and green represents reduction of lipid peroxidation in live cells pretreated with AST;
The reduction of FXN levels in FA increases mitochondrial iron accumulation, ultimately leading to iron-dependent accumulation of lipid ROS and subsequent lipid peroxidation. […] As has been reported previously, we employed C11-BODIPY (581/591) to monitor a shift in fluorescence of oxidized C11-BODIPY. […] Dixon et al., 2012; Martinez et al., 2020.
(In general: In flow cytometry, cells or beads pass a laser one at a time.)

The conditions of data set [3]: pH 7.4 solution at 37° C.; cited from earlier work.
Data set [4] concerns aconitase. Put plainly: Aconitase activity in enriched-mitochondrial pellets of FA fibroblasts. Type of data set: cell-based, human. Also on record: aconitase activity after erastin: dose or concentration left out as unconfirmed. Here is the method: Aconitase activity was measured as a result of formation of NADH and normalized to citrate synthase activity. FIG. 12B, pretreatment of AST with varying concentrations in FA fibroblasts for 4 h followed by 24 h treatment with erastin ([…]). Assays were conducted on enriched-mitochondrial pellets. Results are the means±SEM of n≥3 for all concentrations. *P<0.05, **P<0.005, ***P<0.0005, ****P<0.0001 for comparisons with the […]. Group comparisons are determined by a one-way analysis of variance (ANOVA) with Dunnet's correction post-hoc test using GraphPad Prism 8;
FXN deficiency results in diminished activity of various mitochondrial proteins that contain Fe—S cluster cofactors. For example, aconitase activity is affected in FA fibroblasts. Rötig et al., 1997. Aconitase catalyzes the stereospecific isomerization of citrate to isocitrate in the tricarboxylic acid cycle and its activity is highly dependent on an intact [4Fe-4S]^2+ cluster. We examined the impact of RSSH in FA fibroblasts on aconitase activity, the increase of which is reflective of preserved or augmented Fe—S cluster biosynthesis. […] To corroborate further that AST can effectively preserve or enhance Fe—S cluster assembly under challenging biological conditions, we conducted analogous experiments replacing H2O2 with erastin.

Data set [5] has as its system transferrin receptor 1 (TFR1). The data set is described as follows: TFR1 protein expression, immunoblot. Type of data set: cell-based, human. The conditions noted are these: 25 and 50 μM for 4 h, erastin 24 h. How it is done:
(§1) FIG. 14A, FIG. 14B, FIG. 14C, and FIG. 14D show: FIG. 14A and FIG. 14B pretreatment of AST (25 and 50 μM) for 4 h followed by 24 h treatment with erastin ([…]) immunoblots for indicated proteins of lysates derived from FA fibroblasts. FIG. 14C and FIG. 14D, relative abundance of TFR1 and FTH1 proteins normalized to β-actin loading control. Results are the means+SEM of n=3 for all concentrations. *P<0.05, **P<0.005, comparisons with the erastin group. Group comparisons are determined by a one-way analysis of variance (ANOVA) with Dunnet's correction post-hoc test using GraphPad Prism 8. Samples were run on the same gel for SDS-Page gel electrophoresis in nonconsecutive lanes;
(§2) To test this hypothesis, we studied the effect of RSSH on TFR1 and FTH1 expression levels. We anticipated that the impacts of RSSH would result in downregulation of TFR1 and upregulation of FTH1. […] Feng et al., 2020; Park and Chung, 2019.
A general note: Immunoblotting shows a protein as a band on a membrane.

Data set [6] concerns aconitase. The data set is described as follows: Aconitase protein expression, immunoblot. The data set is classed as cell-based, human. Here is the method:
Mitochondrial aconitase levels are unaffected by treatment of AST and H2O2. Immunoblot analysis was conducted utilizing enriched-mitochondrial pellets. Results are expressed as SEM with n≥3 for all concentrations;
Given these encouraging results, it was critical to determine whether the RSSH's positive impact on aconitase activity was due to enhanced Fe—S cluster biosynthesis or increased aconitase expression.

For data set [7], the system named is H9c2 cardiac myoblasts. Put plainly: H9c2 cell protection from H2O2-mediated oxidative stress, Sytox Green nucleic acid stain. Type of data set: cell-based, rat. The conditions noted are these: Sytox viability assay, H2O2 200 μM. How it is done: Jones and Singer, 2001. […] Tominaga et al., 1999.
Cells were incubated for 2 h before media was removed and the cells gently washed with PBS (pH 7.4). Then, 180 μL of fresh media and 20 μL H2O2 diluted in H2O were added before cells were incubated for an additional 1 h.

The next data set concerns FA fibroblasts (GM04078). The data set is described as follows: Cytoprotection against H2O2 stress in FA fibroblasts, CCK8. The conditions noted are these: 4 h pretreatment, H2O2 75 μM for 4 h. Type of data set: cell-based, human. Here is the method:
FIG. 10A, pretreatment of AST with varying concentrations in FA fibroblasts (GM04078, Coriell Institute) for 4 h followed by 4 h treatment with H2O2. Viability was measured using CCK8 assay. FIG. 10B, pretreatment of AST with varying concentrations in FA fibroblasts for 4 h followed by treatment with erastin for 24 h. […] Group comparisons are determined by a one-way analysis of variance (ANOVA) with Dunnet's correction post-hoc test using GraphPad Prism 8;
Initially, we measured the cytotoxicity of AST in FA skin fibroblasts (GM04078), obtained from the Coriell Institute, to ensure that the RSSH donor itself is not cytotoxic. […] We then measured the ability of AST to confer cytoprotection in FA fibroblasts against hydrogen peroxide (H2O2) stress.

Data set [8] concerns FA fibroblasts. The data set is described as follows: Protection against erastin-induced ferroptosis in FA fibroblasts. The data set is classed as cell-based, human. The conditions noted are these: 25 μM and 50 μM, 4 h pretreatment, erastin 24 h. Here is the method: FIG. 10A, pretreatment of AST with varying concentrations in FA fibroblasts (GM04078, Coriell Institute) for 4 h followed by 4 h treatment with H2O2. Viability was measured using CCK8 assay. FIG. 10B, pretreatment of AST with varying concentrations in FA fibroblasts for 4 h followed by treatment with erastin for 24 h. Results are expressed as SEM with n≥3 for all concentrations. **P<0.005, for comparisons with the erastin group. Group comparisons are determined by a one-way analysis of variance (ANOVA) with Dunnet's correction post-hoc test using GraphPad Prism 8;
We next sought to determine whether AST would protect FA fibroblasts against erastin-induced cell death. Erastin is an inducer of ferroptosis, an iron-dependent form of cell death. It acts as an inhibitor of the cystine glutamate antiporter (system Xc), inhibiting the import of cystine, which leads to downstream depletion of glutathione (GSH) and ultimately to elevated ROS production.

Data set [9] has as its system ferritin heavy chain 1 (FTH1). Put plainly: FTH1 protein expression, immunoblot. Type of data set: cell-based, human. As to conditions: 25 and 50 μM for 4 h, erastin 24 h. How it is done:
as §1, §2

“Also recorded” adds a separate entry of the source.

Take `COC(=O)C(NC(C)=O)C(C)(C)SSC(=O)Oc1ccccc1` (stereo not shown) [Precursor 1a, Methyl 2-acetamido-3-methyl-3-((phenoxycarbonyl)disulfaneyl)butanoate]: the “cytoprotection against H2O2-induced toxicity” value in the data set on H9c2 cardiac myoblasts [1] (pre-treatment 4 h) is given as “dose-dependent decrease of H2O2-induced toxicity”; with H9c2 cardiac myoblasts [1] (pre-treatment with 5 μM for 8 h), “shows protection”. Moreover, the “erastin-induced lipid peroxide levels” value in the data set on FA fibroblasts [2] is “attenuated erastin-induced lipid peroxide levels”. Moreover, in [3], the half-life (as a rule, the time in which the quantity being followed falls by half) is 2.15 h. In addition, the “aconitase activity after H2O2” value in the data set with aconitase [4] (4 h pretreatment at 10, 25, 50 μM, 75 mM H2O2) is on record as “rescues aconitase activity to levels found in control”. In addition, the “aconitase activity after erastin” value in the data set on aconitase [4] (pretreatment) was “attenuated this adverse effect”. In addition, the TFR1 protein level entry in [5] was “three-fold decrease”. Moreover, the aconitase protein expression result in the data set on aconitase [6] (25 μM, 12 h pretreatment, 12 h H2O2, listed as AST) is recorded as “does not alter aconitase protein expression; also recorded: unaffected”. Moreover, the aconitase expression levels entry in the data set with aconitase [6] (in combination with erastin) was “no significant impact”. The “cytoprotection against H2O2-mediated toxicity” value in the data set on H9c2 cardiac myoblasts [7] is listed as “consistently shows protective effects”. The “cytoprotection against H2O2 stress” value in the data set with FA fibroblasts (GM04078) is “attenuated”. In the data set on FA fibroblasts [8], the “protection against erastin-induced ferroptosis” value is on record as “nearly complete protection”. Moreover, in data set [9], the FTH1 protein level result was “two-fold increase”.
